Test results taken from patent US20040110928A1, “Peptide conjugates for drug delivery” (priority 2000, published 2004).

Settings: biotin tag reacted with fluorescently-labelled avidin
Method: In a separate experiment, two synthetic peptides were produced, and covalently attached to a biotin molecule. The sequences were:
The synthetic peptides were assessed for translocation by reacting the biotin tag with fluorescently-labelled avidin.

Biotin-spacer-TPKKASSPAAAAGAKKAKSP-amide [SEQ ID NO. 10]
Translocation: no translocation was observed

Biotin-spacer-TPKKAKKPAAAAGASSAKSP-amide [SEQ ID NO. 11]
Translocation: Translocation was observed
